# Peptide text beside a SMILES is read from it. * marks the point of attachment. Cbz = O=C(OCc1ccccc1)*
# Key:
# [1] = tested on: relaxed pBS (SK+) plasmid DNA; assay: Topoisomerase I unwinding assay (DNA intercalation); details: m-AMSA and etoposide 50 and 300 μM; compound 8 50, 100, 300 μM
# Experimental: Therefore, compound 8 interacts in reversible manner with Top1 to inhibit the plasmid relaxation activity (Figure 1).
# The competence of the drug to intercalate into plasmid DNA was determined by Top1 unwinding assay.[36],[44] Assays were performed with 50 fmol of pBluscript (SK+) DNA in the presence or absence of compound 8, m-AMSA, and etoposide at indicated concentrations. Excess of DNA topoisomerase I was reacted with supercoiled plasmid DNA to generate relaxed DNA for the unwinding assays. The relaxed DNA was purified by proteolytic digestion with proteinase K at 37 °C, followed by phenol/chloroform extraction and ethanol precipitation. The unwinding assays were carried out at 37 °C for 15 min with independent compounds and were analyzed by 1% agarose gel as described above.
# [2] = molecular target: T1, cellular Top1 in MCF7 cells (Homo sapiens, UniProt P11387); assay: Western blot of Top1 in whole cell extracts of treated MCF7 cells; format: cell-based; details: MG132 100 nM preincubated 4 h, then compound 8 10 μM 12 h
# T1 construct: endogenous in cells; host or cells: MCF7 cells
# T1 sequence (P11387 2-765 limits assumed): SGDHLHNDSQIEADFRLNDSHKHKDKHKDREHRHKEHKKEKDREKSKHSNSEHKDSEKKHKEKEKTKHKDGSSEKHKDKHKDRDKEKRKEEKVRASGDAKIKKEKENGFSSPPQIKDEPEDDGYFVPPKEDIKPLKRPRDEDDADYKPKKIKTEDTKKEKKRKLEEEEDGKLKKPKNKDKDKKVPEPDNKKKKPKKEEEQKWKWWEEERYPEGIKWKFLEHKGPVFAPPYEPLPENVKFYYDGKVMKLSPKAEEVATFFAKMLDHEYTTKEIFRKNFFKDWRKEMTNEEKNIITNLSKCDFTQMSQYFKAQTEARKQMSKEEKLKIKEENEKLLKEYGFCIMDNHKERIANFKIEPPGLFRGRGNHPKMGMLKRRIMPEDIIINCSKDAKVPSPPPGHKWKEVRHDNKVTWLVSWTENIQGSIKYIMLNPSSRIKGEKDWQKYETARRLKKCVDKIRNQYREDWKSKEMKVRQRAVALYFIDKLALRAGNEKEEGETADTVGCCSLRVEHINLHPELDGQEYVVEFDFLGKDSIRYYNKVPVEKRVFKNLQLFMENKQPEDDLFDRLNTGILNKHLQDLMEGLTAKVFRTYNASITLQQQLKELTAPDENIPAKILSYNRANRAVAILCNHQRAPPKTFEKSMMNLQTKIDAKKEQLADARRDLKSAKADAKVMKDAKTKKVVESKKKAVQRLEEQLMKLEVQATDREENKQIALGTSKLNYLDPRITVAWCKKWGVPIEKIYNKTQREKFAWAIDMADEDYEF
# Experimental: Because compound 8 binds with free Top1 (Figure 3) and inhibits Top1cc formation in live cells (Figure 2E), we examined the impact of compound 8 on endogenous Top1. Cellular lysates were prepared from MCF7 cells treated with compound 8 for indicated times and were analyzed by Western blotting. […] Because proteasome has been implicated for Top1 degradation,[7],[9],[45] we used proteasome specific inhibitor (MG132) to investigate Top1 proteolysis in compound 8 treated cells.
# Preparation of whole cell extracts from MCF7 cells and immunoblotting were carried out as described.[6],[40],[41] Immunoreactivity was detected using ECL chemiluminescence reaction (Amersham) under ChemiDoc MP system (Bio-Rad, USA).
# MCF7 cells [3] = assay: Measurement of intracellular ROS (H2DCFDA); format: cell-based, human; details: NAC 10 mM pretreatment 30 min before compound 8 10 μM
# Excerpt: Next, to investigate the mechanistic link between compound 8 induced cellular Top1 inhibition (Figure 1), degradation (Figure 4A and Figure 4B), and activation of apoptosis (Figure 4C), we tested reactive oxygen species (ROS) formation and accumulation of oxidative DNA fragmentation[15],[17],[46] in compound 8 treated MCF7 cells. […] We observed a marked elevation (∼3- to 5-fold) in ROS accumulation (Figure 5A) under similar conditions that activate PARP1 cleavage (Figure 4C). Nonetheless, MCF7 cells pretreated with N-acetylcysteine (NAC), a specific inhibitor of ROS, reduced compound 8 induced ROS generation by ∼3-fold (Figure 5A).
# Intracellular ROS was detected in drug-treated MCF7 cells with or without pretreatment of N-acetyl-L-cysteine (NAC) for indicated time as described.[13],[46] Briefly, cells were washed and resuspended in 500 μL of 1× PBS and were loaded with 2 μg/mL of H2DCFDA (Molecular Probes) for 30 min, and green fluorescence of 2,7-dichlorofluorescein was measured at 515 nm by spectrofluorometer.
# MCF7 cells [4] = assay: Alkaline comet assay; format: cell-based, human; details: NAC 10 mM pretreatment 30 min before compound 8
# Excerpt: Therefore, we directly measured compound 8 induced DNA strand breaks at single cellular level by using alkaline comet assays (Figure 5B,C) and simultaneously measured the apoptotic cell death by immunofluorescence staining of the apoptosis marker phosphatidylserine with annexin V-FITC antibody (Figure 5D,E). Compound 8 treated MCF7 cells accumulate ∼8-fold increase in DNA strand breaks (Figure 5B and Figure 5C) compared to untreated cells, resulting in ∼7-fold elevation in compound 8 induced annexin V(+) apoptotic cells (Figure 5D and Figure 5E). […] Therefore, we conclude that compound 8 triggers reactive oxygen species induced DNA degradation and apoptotic cell death without stabilizing Top1-DNA cleavage complexes.
# To detect the levels of drug-induced DNA breaks, after treatment MCF7 cells were subjected to alkaline comet assays according to the manufacturer’s instructions (Trevigen, USA) and comet length was measured and was scored for at least 50 cells. Distributions of comet lengths were compared using the Student’s t-test as described previously.[13],[40],[50]
# [5] = molecular target: T2, EGFP-human Top1 in MCF7 cells (Homo sapiens, UniProt P11387); assay: FRAP of EGFP-Top1 in live MCF7 cells; format: cell-based; details: 5 μM, 10 min
# T2 construct: expressed in transfected cells; host or cells: MCF7 cells, transient transfection (Lipofectamine 2000)
# T2 sequence (P11387 1-765): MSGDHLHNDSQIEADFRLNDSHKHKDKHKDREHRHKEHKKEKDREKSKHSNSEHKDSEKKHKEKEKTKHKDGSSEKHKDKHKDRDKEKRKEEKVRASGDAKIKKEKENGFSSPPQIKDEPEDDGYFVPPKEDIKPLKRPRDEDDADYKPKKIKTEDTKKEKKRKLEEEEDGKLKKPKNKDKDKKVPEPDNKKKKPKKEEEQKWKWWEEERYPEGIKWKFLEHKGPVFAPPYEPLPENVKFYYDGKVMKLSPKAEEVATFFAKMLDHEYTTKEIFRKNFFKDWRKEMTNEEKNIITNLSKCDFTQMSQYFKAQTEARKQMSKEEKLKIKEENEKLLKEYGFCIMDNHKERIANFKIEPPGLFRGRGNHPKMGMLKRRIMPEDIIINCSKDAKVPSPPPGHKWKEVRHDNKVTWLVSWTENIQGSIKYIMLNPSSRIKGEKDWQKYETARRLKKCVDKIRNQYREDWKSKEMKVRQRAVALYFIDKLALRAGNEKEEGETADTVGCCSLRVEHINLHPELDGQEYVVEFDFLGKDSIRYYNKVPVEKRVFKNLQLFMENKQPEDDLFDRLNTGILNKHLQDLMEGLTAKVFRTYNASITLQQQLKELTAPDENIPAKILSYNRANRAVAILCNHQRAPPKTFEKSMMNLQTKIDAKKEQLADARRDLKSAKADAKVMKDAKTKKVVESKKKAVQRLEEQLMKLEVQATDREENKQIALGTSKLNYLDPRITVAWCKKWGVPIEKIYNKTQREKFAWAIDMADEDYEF
# Experimental: To obtain direct evidence for compound 8 mediated inhibition of Top1cc formation in live human carcinoma cells, we used MCF7 cells and transiently expressed EGFP-Top1. Live cells expressing ectopic Top1 were analyzed under laser confocal microscopy equipped with fluorescence recovery after photobleaching (FRAP) technology.[40]−[42]
# Photobleaching experiments were performed as described formerly[40]−[42] using Andor Spining disk inverted confocal laser-scanning microscope equipped with a 60×/1.42 NA oil-immersion objective (Olympus) and with a CO2-controlled on-stage heated environmental chamber set to 37 °C. FRAP analyses were carried out with living MCF7 cells ectopically expressing EGFP-human Top1 grown on chamber cover glass (Genetix, India) and drug treated as indicated. For FRAP analysis, a subnuclear spot was bleached for 30 ms by solid-state laser line (488 nm for EGFP) adapted to the fluorescent protein of interest and FRAP curves were generated individually normalized to the prebleach signal as described previously.[42]
smiles,measurement,setting,value
COc1cc([C@@H]2c3cc4c(cc3[C@@H](O[C@@H]3O[C@@H]5CO[C@@H](C)O[C@H]5[C@H](O)[C@H]3O)[C@H]3COC(=O)[C@H]23)OCO4)cc(OC)c1O [etoposide],Negative supercoiling of relaxed plasmid DNA (intercalation),[1],failed to show such effect
"CC(C)C[C@@H](C=O)NC(=O)[C@H](CC(C)C)NC(=O)[C@H](CC(C)C)NC(=O)OCc1ccccc1 [MG132, reference compound] (Cbz-Leu-Leu-Leu-aldehyde)",Effect on 8-induced degradation of Top1,[2],abrogated
"CC(=O)N[C@@H](CS)C(=O)O [NAC, N-acetyl-L-cysteine]",Reduction of compound 8 induced ROS generation,MCF7 cells [3],~3 fold
same,Decrease in compound 8 induced DNA breaks,MCF7 cells [4],~4 fold
COc1cc(NS(C)(=O)=O)ccc1Nc1c2ccccc2nc2ccccc12 [m-AMSA],Negative supercoiling of relaxed plasmid DNA (intercalation),[1],incites a net negative supercoiling of the relaxed plasmid DNA
"CC[C@@]1(O)C(=O)OCc2c1cc1n(c2=O)Cc2cc3ccccc3nc2-1 [CPT, Camptothecin, reference compound]",Increase of Top1 immobile population (FRAP),[5],40–50%
